Legend:
[1] = target: T1, recombinant human secreted phospholipase A2 (Homo sapiens, UniProt P14555); test: chromogenic assay of sPLA2 inhibition (diheptanoyl thio-PC / DTNB, 96 well microtiter plates); assay type: biochemical; conditions: absorbance at 405 nanometers, 40° C. for 30 minutes, pH 7.5, titrated in triplicate and averaged
T1 sequence (P14555 21-144): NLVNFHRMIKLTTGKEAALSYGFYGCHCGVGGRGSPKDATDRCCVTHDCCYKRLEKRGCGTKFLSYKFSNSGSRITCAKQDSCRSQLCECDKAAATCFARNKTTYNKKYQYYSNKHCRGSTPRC
Excerpt: The following chromogenic assay procedure was used to identify and evaluate inhibitors of recombinant human secreted phospholipase A2. The assay described herein has been adapted for high volume screening using 96 well microtiter plates. A general description of this assay method is found in the article, “Analysis of Human Synovial Fluid Phospholipase A2 on Short Chain Phosphatidylcholine-Mixed Micelles: Development of a Spectrophotometric Assay Suitable for a Microtiterplate Reader”, by Laure J. Reynolds, Lori L. Hughes, and Edward A Dennis, Analytical Biochemistry, 204, pp. 190-197, 1992 (the disclosure of which is incorporated herein by reference):
REACTION BUFFER— • CaCl2.2H2O (1.47 g/L) • KCl (7.455 g/L) • Bovine Serum Albumin (fatty acid free) (1 g/L) • (Sigma A-7030, product of Sigma • Chemical Co., St. Louis Mo., USA) • TRIS HCl (3.94 g/L) • pH 7.5 (adjust with NaOH)
ENZYME BUFFER— • 0.05 NaOAc.3H2O, pH 4.5 • 0.2 NaCl • Adjust pH to 4.5 with acetic acid
DTNB—5,5′-dithiobis-2-nitrobenzoic acid
RACEMIC DIHEPTANOYL THIO—PC • racemic 1,2-bis(heptanoylthio)-1,2-dideoxy-sn-glycero-3-phosphorylcholine • TRITON X-100™ prepare at 6.249 mg/ml in reaction buffer to equal […].
A measured volume of racemic dipheptanoyl thio PC supplied in chloroform at a concentration of 100 mg/ml is taken to dryness and redissolved in 10 millimolar TRITON X-100™ nonionic detergent aqueous solution. Reaction Buffer is added to the solution, then DTNB to give the Reaction Mixture.
The reaction mixture thus obtained contains 1 mM diheptanoly thio-PC substrate, 0.29 mm Triton X-100™ detergent, and 0.12 mm DTMB in a buffered aqueous solution at pH 7.5.
• 1. Add 0.2 ml reaction mixture to all wells; • 2. Add 10 ul test compound (or solvent blank) to appropriate wells, mix 20 seconds; • 3. Add 50 nanograms of sPLA2 (10 microliters) to appropriate wells; • 4. Incubate plate at 40° C. for 30 minutes; • 5. Read absorbance of wells at 405 nanometers with an automatic plate reader.
Tests were done in triplicate. Typically, compounds were tested at a final concentration of 5 ug/ml. […] Lack of color development at 405 nanometers evidenced inhibition. Compounds initially found to be active were re-assayed to confirm their activity and, if sufficiently active, IC50 values were determined. […] In all cases, % inhibition measured at 405 nanometers generated by enzyme reactions containing inhibitors relative to the uninhibited control reactions was determined. Each sample was titrated in triplicate and result values were averaged for plotting and calculation of IC50 values. IC50 values were determined by plotting log concentration versus inhibition values in the range from 10-90% inhibition.

Row | SMILES | IC50 [1] | melting point
1 | Cc1c(C(=O)C(N)=O)c2c(OCC(=O)O)cc3c(c2n1Cc1cccc(F)c1)CCC3 [Example 7, 2-[[3-(2-Amino-1,2-dioxoethyl)-2-methyl-1-(3-fluorobenzyl)-1,6,7,8-tetrahydrocyclopent[g]indol-4-yl]oxy]acetic acid hydrate] | 0.01 µM | –
2 | CCc1c(C(=O)C(N)=O)c2c(OCC(=O)O)cc3c(c2n1Cc1ccccc1)CCCC3 [Example 13, 2-[[3-(2-Amino-1,2-dioxoethyl)-1-benzyl-2-ethyl-6,7,8,9-tetrahydro-1H-benz[g]indol-4-yl]oxy]acetic acid] | 0.011 µM | –
3 | Cc1c(C(=O)C(N)=O)c2c(OCC(=O)O)cc3c(c2n1Cc1ccc(F)cc1)CCC3 [Example 11, 2-[[3-(2-Amino-1,2-dioxoethyl)-2-methyl-1-(4-fluorobenzyl)-1,6,7,8-tetrahydrocyclopent[g]indol-4-yl]oxy]acetic acid] | 0.082 µM | –
4 | COC(=O)COc1cc2c(c3c1c(C(=O)C(N)=O)c(C)n3Cc1cccc(F)c1)CCC2 [Example 6, 2-[[3-(2-Amino-1,2-dioxoethyl)-2-methyl-1-(3-fluorobenzyl)-1,6,7,8-tetrahydrocyclopent[g]indol-4-yl]oxy]acetic Acid methyl ester] | 0.132 µM | –
5 | Cc1c(C(=O)C(N)=O)c2c(OCC(=O)O)cc3c(c2n1Cc1ccccc1)CCCC3 [Example 15, 2-[[3-(2-Amino-1,2-dioxoethyl)-1-benzyl-2-methyl-6,7,8,9-tetrahydro-1H-benz[g]indol-4-yl]oxy]acetic acid] | 0.01 µM | –
6 | CCc1c(C(=O)C(N)=O)c2c(OCC(=O)OC)cc3c(c2n1Cc1ccccc1)CCC3 [Example 1, 2-[[3-(2-Amino-1,2-dioxoethyl)-2-ethyl-1-benzyl-1,6,7,8-tetrahydrocyclo-pent[g]indol-4-yl]oxy]acetic acid methyl ester] | 0.108 µM | –
7 | COC(=O)COc1cc2c(c3c1c(C(=O)C(N)=O)c(C)n3Cc1ccccc1)CCCC2 [Example 14, 2-[[3-(2-Amino-1,2-dioxoethyl)-1-benzyl-2-methyl-6,7,8,9-tetrahydro-1H-benz[g]indol-4-yl]oxy]acetic acid methyl ester] | 0.109 µM | –
8 | Cc1c(C(=O)C(N)=O)c2c(OCC(=O)O)cc3c(c2n1Cc1ccccc1)CCC3 [Example 4, 2-[[3-(2-Amino-1,2-dioxoethyl)-2-methyl-1-benzyl-1,6,7,8-tetrahydrocyclopent[g]indol-4-yl]oxy]acetic acid] | 0.01 µM | –
9 | COC(=O)COc1cc2c(c3c1c(C(=O)C(N)=O)c(C)n3Cc1ccccc1Br)CCC2 [Example 16, 2-[[3-(2-Amino-1,2-dioxoethyl)-2-methyl-1-(2-bromobenzyl)-1,6,7,8-tetrahydrocyclopent[g]indol-4-yl]oxy]acetic acid methyl ester] | 0.453 µM | –
10 | Cc1c(C(=O)C(N)=O)c2c(OCC(=O)O)cc3c(c2n1Cc1ccccc1-c1ccc(Br)s1)CCC3 [Example 21, 2-[[3-(2-amino-1,2-dioxoethyl)-2-methyl-1-[2-(5-bromothiophen-2-yl)benzyl]-1,6,7,8-tetrahydrocyclopent[g]indol-4-yl]oxy]acetic acid] | 0.044 µM | –
11 | Cc1c(C(=O)C(N)=O)c2c(OCC(=O)O)cc3c(c2n1Cc1ccccc1F)CCC3 [Example 9, 2-[[3-(2-Amino-1,2-dioxoethyl)-2-methyl-1-(2-fluorobenzyl)-1,6,7,8-tetrahydrocyclopent[g]indol-4-yl]oxy]acetic acid] | 0.009 µM | –
12 | COC(=O)COc1cc2c(c3c1c(C(=O)C(N)=O)c(C)n3Cc1ccc(F)cc1)CCC2 [Example 10, 2-[[3-(2-Amino-1,2-dioxoethyl)-2-methyl-1-(4-fluorobenzyl)-1,6,7,8-tetrahydrocyclopent[g]indol-4-yl]oxy]acetic acid methyl ester] | 0.806 µM | 222 to 224 °C
13 | COC(=O)COc1cc2c(c3c1c(C(=O)C(N)=O)c(C)n3Cc1ccccc1)CCC2 [Example 3, 2-[[3-(2-Amino-1,2-dioxoethyl)-2-methyl-1-benzyl-1,6,7,8-tetrahydrocyclo-pent[g]indol-4-yl]oxy]acetic acid methyl ester] | 0.106 µM | –
14 | COC(=O)COc1cc2c(c3c1c(C(=O)C(N)=O)c(C)n3Cc1ccccc1-c1ccccc1)CCC2 [Example 18, 2-[[3-(2-Amino-1,2-dioxoethyl)-2-methyl-1-(2-phenylbenzyl)-1,6,7,8-tetrahydrocyclopent[g]indol-4-yl]oxy]acetic acid methyl ester] | 0.19 µM | –
15 | COC(=O)COc1cc2c(c3c1c(C(=O)C(N)=O)c(C)n3Cc1ccccc1-c1ccc(Br)s1)CCC2 [Example 20, 2-[[3-(2-amino-1,2-dioxoethyl)-1-[2-(5-bromothiophen-2-yl)benzyl]-2-methyl-1,6,7,8-tetrahydrocyclopent[g]indol-4-yl]oxy]acetic acid methyl ester] | 0.638 µM | –
16 | Cc1c(C(=O)C(N)=O)c2c(OCC(=O)O)cc3c(c2n1Cc1ccccc1-c1ccccc1)CCC3 [Example 19, 2-[[3-(2-Amino-1,2-dioxoethyl)-2-methyl-1-(2-phenylbenzyl)-1,6,7,8-tetrahydrocyclopent[g]indol-4-yl]oxy]acetic acid] | 0.035 µM | –
17 | COC(=O)COc1cc2c(c3c1c(C(=O)C(N)=O)c(C)n3Cc1ccccc1F)CCC2 [Example 8, 2-[[3-(2-Amino-1,2-dioxoethyl)-2-methyl-1-(2-fluorobenzyl)-1,6,7,8-tetrahydrocyclopent[g]indol-4-yl]oxy]acetic acid methyl ester] | 0.073 µM | –
18 | Cc1c(C(=O)C(N)=O)c2c(OCC(=O)O)cc3c(c2n1Cc1ccccc1Br)CCC3 [Example 17, 2-[[3-(2-Amino-1,2-dioxoethyl)-2-methyl-1-(2-bromobenzyl)-1,6,7,8-tetrahydrocyclopent[g]indol-4-yl]oxy]acetic acid] | 0.01 µM | –
19 | Cc1c(C(=O)C(N)=O)c2c(OCC(=O)NS(=O)(=O)c3ccccc3)cc3c(c2n1Cc1ccccc1)CCC3 [Example 5, 2-[4-(2-Benzenesulfonylamino-2-oxoethoxy)-1-benzyl-2-methyl-1,6,7,8-tetrahydro-1-aza-as-indacen-3-yl]-2-oxoacetamide] | 0.007 µM | –
20 | CCc1c(C(=O)C(N)=O)c2c(OCC(=O)OC)cc3c(c2n1Cc1ccccc1)CCCC3 [Example 12, 2-[[3-(2-Amino-1,2-dioxoethyl)-1-benzyl-2-ethyl-6,7,8,9-tetrahydro-1H-benz[g]indol-4-yl]oxy]acetic acid methyl ester] | 0.1 µM | –
21 | CCc1c(C(=O)C(N)=O)c2c(OCC(=O)O)cc3c(c2n1Cc1ccccc1)CCC3 [Example 2, 2-[[3-(2-Amino-1,2-dioxoethyl)-2-ethyl-1-benzyl-1,6,7,8-tetrahydrocyclo-pent[g]indol-4-yl]oxy]acetic acid] | 0.013 µM | –
